Columns and labels:
SUM159 cells [1] = settings: 24 hours, mean±SEM
Description: To assess anticancer efficacy and selectivity, both venom from European honeybees collected in Perth, Australia and melittin peptide were evaluated in dose-response assays in a panel of cell lines representative of the intrinsic breast cancer subtypes and in non-transformed cells.

T11 cells [2] = experiment: Cell viability, combination with docetaxel; type: cell-based, murine; settings: T11, 48 hours
Description: FIG. 15 presents the results of cell viability assays of T11 breast cancer cells treated with melittin or RGD1-melittin alone and in combination with docetaxel for 48 hours. Representative plots of the combination treatments are presented as mean±SEM.
The murine p53 TNBC cell line T11 was treated with docetaxel in combination with either melittin or RGD1-melittin, and cell viability assays were conducted to determine the combination effect between the treatments (FIG. 15).

[3] = tested on: T11, OVCAR3, SUM159 and SKBR3 cells; experiment: Cell viability, RGD1-melittin with docetaxel; type: cell-based; settings: 24 h, non-constant ratio
Description: Cell viability assays of T11, OVCAR3, SUM159 and SKBR3 cells treated with RGD1-melittin alone and in combination with docetaxel were performed. Cells were seeded overnight at a density of 5000 cells/p96-well plate and treated with active RGD1-melittin alone or combined with docetaxel and administered at concentrations indicated in a non-constant ratio in the respective cell lines for 24 h. Cell viability was assessed using the CellTiter-Glo® assay.
(§1) The combination effect for different fractions of cells impacted in each combination were calculated using the Chou and Talalay algorithm included in the freely available CompuSyn software. Combination index (CI)<1 means synergism, CI=1 means additive and CI>1 means antagonism.

[4] = tested on: PD-L1 in T11, SUM159 and SKBR3 cells; experiment: qRT-PCR of PD-L1 expression; type: cell-based; settings: 24 h at IC50; p<0.005 T11, p<0.05 SUM159, p<0.005 SKBR3
Description: The level of PD-L1 expression was also measured in T11, SUM159 and SKBR3 treated with active RGD1-melittin and mutant RGD1-melittin peptides, or vehicle treated only, using qRT-PCR.
Cells were seeded overnight at a density of 3×105 in a p6-well plate. […] Cells were washed once with PBS before RNA was extracted from the cells using QIAzol Lysis. Reagent (QIAGEN) according to manufacturer's instructions. 500 ng of purified total RNA was used as the template for cDNA synthesis using the High Capacity cDNA Reverse Transcription Kit (Applied Biosystems). Relative quantification of PD-L1 transcript expression was obtained by quantitative real-time PCR (qRT-PCR) using fluorescent TaqMan probes (Applied Biosystems) and run on the ViiA 7TM Real-Time PCR machine (Applied Biosystems). Data were analysed by QuantStudio Real-Time PCR Software (Applied Biosystems) and results were expressed as fold change compared to untreated cells, respectively, after normalization against the GAPDH mRNA levels.

[5] = tested on: T11, OVCAR3 and COV362 cells; experiment: Cell viability, RGD1-melittin with cisplatin; type: cell-based; settings: 24 h, non-constant ratio
Description: Cell viability assays of T11, OVCAR3, and COV362 cells treated with RGD1-melittin alone and in combination with cisplatin were performed. Cells were seeded overnight at a density of 5000 cells/p96-well plate and treated with active RGD1-melittin alone or combined with […] and administered at concentrations indicated in a non-constant ratio in the respective cell lines for 24 h. Cell viability was assessed using the CellTiter-Glo® assay.
as §1

T11 cells [6] = experiment: Cell viability, combination with omomyc; type: cell-based, murine; settings: T11, 24 hours
Description: FIG. 16 presents the results of cell viability assays of T11 breast cancer cells treated with melittin or RGD1-melittin alone and in combination with omomyc for 24 hours. Representative plots of the combination treatments are presented as mean±SEM.
The murine p53 TNBC cell line T11 was treated with omomyc in combination with either melittin or RGD1-melittin, and cell viability assays were conducted to determine the combination effect between the treatments (FIG. 16).

SUM159 cells [7] = experiment: Immunofluorescence subcellular localization with anti-melittin antibody; type: cell-based, human; settings: 30 minutes, IC50 concentrations
[8] = tested on: Ki-67 and PD-L1 in T11, SUM159 and SKBR3 cells; experiment: Immunofluorescence of Ki-67 and PD-L1; type: cell-based; settings: 24 h at IC50 concentrations, all three cell lines
Description: The expression of PD-L1 of TNBC cells (T11 and SUM159) and HER2-enriched breast cancer cells (SKBR3) treated with active RGD1-melittin and mutant RGD1-melittin (DEDE RGD1-melittin) was measured using immunofluorescence.
Cells were seeded overnight on coverslips at a density of 3×105 in a p24-well plate coated with poly-L-lysine (Sigma-Aldrich) for 20 min and then washed twice with purified water. […] The cells were washed three times with PBS and then incubated with a goat α-mouse secondary Alexa Fluor 488-conjugated antibody (Thermo Fisher Scientific #A11001, 1:500) and Hoechst-33258 (1:5000) in PBS for 1 h at room temperature. After three more washes of PBS, the coverslip containing cells were mounted onto glass […] with SlowFade Diamond Antifade Mountant (Thermo Fisher Scientific). Slides were imaged using the confocal fluorescence Nikon Ti inverted microscope. Images were taken at 40× magnification and processed using ImageJ.

COV362 cells = type: cell-based
Description: (§2) The OVCAR3 and COV362 ovarian cancer cell lines were treated with active RGD1-melittin and mutant RGD1-melittin (DEDE-RGD1-melittin). The COV362 cells were cultured in DMEM low glucose medium supplemented with 10% FBS. The OVCAR3 cells were grown in RPMI medium supplemented with 20% FBS. Cells were seeded overnight at a density of 5000 cells/p96-well plate and treated with active RGD1-melittin and mutant RGD1-melittin (RGD1-DEDE melittin), for 24 h at concentrations up to 20 µM. After treatments, cell viability was assessed using the CellTiter-Glo® assay according to the manufacturer's protocol (Promega; NSW, Australia). Luminescence signals were measured using the EnVision Multilabel Plate Reader (PerkinsElmer Inc.; Waltham, MA, USA). IC50s were calculated and transformed 95% confidence intervals provided by GraphPad Prism 6 software analysis (GraphPad Software Inc., San Diego, CA, USA).

OVCAR3 cells = type: cell-based
Description: as §2

T11 cells [9] = experiment: Cell viability assay of melittin variants, T11; type: cell-based, murine; settings: t-test p=0.652
Description: FIG. 5 presents the lack of anticancer activity of DEDE-melittin, and the breast cancer cell selectivity of the melittin fusion peptide RGD1-melittin. FIG. 5A presents cell viability assays of TNBC (SUM159) and HER2-enriched (SKBR3) cells treated with DEDE-melittin for 24 hours. FIG. 5B presents cell viability assays of T11 cells treated with melittin, RGD1-melittin, SV40-melittin, TAT-melittin and DEDE-melittin. FIG. 5C presents cell viability assays of human dermal fibroblasts (HDFa) and SUM159 treated with melittin (top) and RGD1-melittin (bottom) for 24 hours.
To assess the functional role of the positive (K21RKR24) sequence (SEQ ID NO: 4) in the C-terminus of melittin, a negatively charged melittin peptide (D21EDE24-melittin; SEQ ID NO: 6) was designed. These negative residues were predicted to disrupt the binding of melittin with the plasma membrane. […] However, the potency of melittin and SV40-melittin were greater than TAT-melittin, which could be due to the larger size of TAT.

SUM159 cells [10] = experiment: Cleaved caspase-3 immunoblot; type: cell-based, human; settings: 24 hours

CC[C@H](C)[C@H](NC(=O)CNC(=O)[C@H](CCCCN)NC(=O)[C@H](CCCCN)NC(=O)[C@H](CC(C)C)NC(=O)[C@H](CCCNC(=N)N)NC(=O)CNC(=O)[C@H](CC(C)C)NC(=O)[C@H](CC(=O)O)NC(=O)CNC(=O)[C@H](CCCNC(=N)N)NC(=O)CNC(=O)[C@@H](N)Cc1c[nH]cn1)C(=O)NCC(=O)N[C@@H](C)C(=O)N[C@H](C(=O)N[C@@H](CC(C)C)C(=O)N[C@@H](CCCCN)C(=O)N[C@H](C(=O)N[C@@H](CC(C)C)C(=O)N[C@H](C(=O)N[C@H](C(=O)NCC(=O)N[C@@H](CC(C)C)C(=O)N1CCC[C@H]1C(=O)N[C@@H](C)C(=O)N[C@@H](CC(C)C)C(=O)N[C@H](C(=O)N[C@@H](CO)C(=O)N[C@@H](Cc1c[nH]c2ccccc12)C(=O)N[C@H](C(=O)N[C@@H](CCCCN)C(=O)N[C@@H](CCCNC(=N)N)C(=O)N[C@@H](CCCCN)C(=O)N[C@@H](CCCNC(=N)N)C(=O)N[C@@H](CCC(N)=O)C(=O)N[C@@H](CCC(N)=O)C(=O)O)[C@@H](C)CC)[C@@H](C)CC)[C@@H](C)O)[C@@H](C)O)C(C)C)C(C)C [RGD1-melittin]
ratio of the IC50s of HDFa/SUM159 (SUM159 cells [1]): 2.73±0.14 | combination effect with docetaxel on cell viability (T11 cells [2]): beneficial effect when combined with docetaxel | sensitization to docetaxel (cell viability, combination index) [3]: significantly sensitized all four tested cell lines to docetaxel | level of PD-L1 (qRT-PCR) [4]: significantly reduce | sensitization to cisplatin (cell viability, combination index) [5]: significantly sensitized all three tested cell lines to cisplatin | combination effect with omomyc on cell viability (T11 cells [6]): beneficial effect when combined with omomyc | subcellular localization / anti-melittin staining (SUM159 cells [7]): distinctively targeted to the plasma membrane alone | PD-L1 expression (immunofluorescence) [8]: reduced | cell proliferation (Ki-67) [8]: reduced | fold lower IC50 than active melittin (COV362 cells; COV362): approximately 3.7 fold | IC50 (COV362 cells; COV362, 24 h): 2100 nM | fold lower IC50 than active melittin (OVCAR3 cells; OVCAR3): approximately 6 fold | IC50 (OVCAR3 cells; OVCAR3, 24 h): 3360 nM | IC50 compared to parental melittin (T11 cells [9]): not significantly different compared to parental melittin | induction of apoptosis (cleaved caspase-3) (SUM159 cells [10]): confirmed the anticancer activity
